This note sets out measurements from PubChem BioAssay AID330 (DTP/NCI, 2004).

The experiment concerns P388 leukemia ip, CD2F1 mice, survival T/C. Put plainly: NCI In Vivo Anticancer Drug Screen. Data for tumor model P388 Leukemia (intraperitoneal) in CD2F1 (CDF1) mice. The settings on record: endpoint: median survival time, higher = longer survival. In short, it runs like this: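 Mice carrying the transplanted tumor received test compound or vehicle. Survival was recorded in each group, and the value is the treated-group measurement divided by that of the vehicle-treated control group.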

[1] abbreviates: dose: 50.0 mg/kg/injection, schedule: Q01DX005 (ip), vehicle: Klucel (hydroxypropylcellulose) (HPC).
The mark [2] stands for this setting: dose: 100.0 mg/kg/injection, schedule: Q01DX005 (ip), vehicle: Klucel (hydroxypropylcellulose) (HPC).
Setting [3] is: dose: 200.0 mg/kg/injection, schedule: Q01DX005 (ip), vehicle: Klucel (hydroxypropylcellulose) (HPC).
Setting [4] is: dose: 50.0 mg/kg/injection, schedule: Q01DX009 (ip), vehicle: saline.
The mark [5] stands for this setting: dose: 25.0 mg/kg/injection, schedule: Q04DX003 (ip), vehicle: saline with Tween-80.
The mark [6] stands for this setting: dose: 60.0 mg/kg/injection, schedule: Q01DX005 (ip), vehicle: saline with Tween-80.
Setting [7] is: dose: 120.0 mg/kg/injection, schedule: Q01DX005 (ip), vehicle: saline with Tween-80.
The mark [8] stands for this setting: dose: 240.0 mg/kg/injection, schedule: Q01DX005 (ip), vehicle: saline with Tween-80.
Setting [9] is: dose: 50.0 mg/kg/injection, schedule: Q01DX005 (ip), vehicle: saline with Tween-80.
The mark [10] stands for this setting: dose: 100.0 mg/kg/injection, schedule: Q01DX005 (ip), vehicle: saline with Tween-80.
The mark [11] stands for this setting: dose: 200.0 mg/kg/injection, schedule: Q01DX005 (ip), vehicle: saline with Tween-80.

Where “and” joins values, the source holds several entries; their conditions need not be identical. Identical values can stand only once. Toxic doses and inconclusive results are not listed.

As to `CC(C)NC(=O)OCc1c(COC(=O)NC(C)C)c([N+](=O)[O-])n2c1CCC2`, the T/C reads like this: (dose: 25.0 mg/kg/injection, schedule: Q01DX005 (ip), vehicle: Klucel (hydroxypropylcellulose) (HPC)) 95 % of control; under setting [1], 99 % of control; under setting [2], 99 % of control and 97 % of control; under setting [3], 104 % of control and 94 % of control; (dose: 400.0 mg/kg/injection, schedule: Q01DX005 (ip), vehicle: Klucel (hydroxypropylcellulose) (HPC)) 100 % of control.

For `CCN(CC)CCCNc1cccc2c(C)cc(OC)nc12`, the T/C was 92 % of control (dose: 12.5 mg/kg/injection, schedule: Q01DX009 (ip), vehicle: saline); 90 % of control (dose: 25.0 mg/kg/injection, schedule: Q01DX009 (ip), vehicle: saline); 86 % of control under setting [4].

`N=C(N)Sc1cc(O)c(O)c2ccccc12`: the T/C (dose: 6.25 mg/kg/injection, schedule: Q01DX005 (ip), vehicle: saline) is 104 % of control and the T/C (dose: 12.5 mg/kg/injection, schedule: Q01DX005 (ip), vehicle: saline) was 109 % of control.

Consider `S=P(NCCNP(=S)(N1CC1)N1CC1)(N1CC1)N1CC1`, for which the T/C was 122 % of control under setting [5]; 165 % of control (dose: 33.0 mg/kg/injection, schedule: Q04DX003 (ip), vehicle: saline with Tween-80); 95 % of control (dose: 50.0 mg/kg/injection, schedule: Q01DX009 (ip), vehicle: saline with Tween-80); 170 % of control and 177 % of control (dose: 50.0 mg/kg/injection, schedule: Q04DX003 (ip), vehicle: saline with Tween-80); 90 % of control (dose: 75.0 mg/kg/injection, schedule: Q04DX003 (ip), vehicle: saline with Tween-80); 86 % of control (dose: 100.0 mg/kg/injection, schedule: Q04DX003 (ip), vehicle: saline with Tween-80).

For the compound `O=C(O)C(=O)O.O=C(O)C(=O)O.O=C(O)C(=O)O.[Ru]`, the T/C (dose: 12.5 mg/kg/injection, schedule: Q04DX003 (ip), vehicle: water) is 110 % of control and 87 % of control.

Take `CC(C)(C)n1nc(C2CC2)c(Br)c1NC(=O)c1ccccc1F`: the T/C (dose: 30.0 mg/kg/injection, schedule: Q01DX005 (ip), vehicle: Klucel (hydroxypropylcellulose) (HPC)) was 100 % of control; the T/C (dose: 60.0 mg/kg/injection, schedule: Q01DX005 (ip), vehicle: Klucel (hydroxypropylcellulose) (HPC)) is 98 % of control; the T/C (dose: 120.0 mg/kg/injection, schedule: Q01DX005 (ip), vehicle: Klucel (hydroxypropylcellulose) (HPC)) is 104 % of control; the T/C (dose: 240.0 mg/kg/injection, schedule: Q01DX005 (ip), vehicle: Klucel (hydroxypropylcellulose) (HPC)) is 100 % of control.

Regarding `N#Cc1c(-c2ccccc2)c(-c2ccccc2)nn(CCC(=O)O)c1=O`, the T/C is 101 % of control (dose: 25.0 mg/kg/injection, schedule: Q04DX002 (ip), vehicle: distilled water + Tween-80); 102 % of control (dose: 50.0 mg/kg/injection, schedule: Q04DX002 (ip), vehicle: distilled water + Tween-80); 108 % of control (dose: 100.0 mg/kg/injection, schedule: Q04DX002 (ip), vehicle: distilled water + Tween-80).

Regarding `CC(=O)NC(CS)C(=O)O` (stereo unspecified), the T/C reads like this: under setting [4], 111 % of control and 88 % of control; (dose: 100.0 mg/kg/injection, schedule: Q01DX009 (ip), vehicle: saline) 103 % of control and 104 % of control and 111 % of control; (dose: 200.0 mg/kg/injection, schedule: Q01DX009 (ip), vehicle: saline) 99 % of control (2×) and 109 % of control.

For the compound `CSCc1csc(N)n1`, the T/C was 102 % of control (dose: 12.5 mg/kg/injection, schedule: Q01DX009 (ip), vehicle: other); 96 % of control (dose: 25.0 mg/kg/injection, schedule: Q01DX009 (ip), vehicle: other); 111 % of control (dose: 50.0 mg/kg/injection, schedule: Q01DX009 (ip), vehicle: other); 111 % of control (dose: 100.0 mg/kg/injection, schedule: Q01DX009 (ip), vehicle: other); 100 % of control (dose: 200.0 mg/kg/injection, schedule: Q01DX009 (ip), vehicle: other).

Turning to `O=C1NC(=O)C2(CCC(O)C2)c2ccncc21` (stereo unspecified), the T/C was 103 % of control (dose: 0.12 mg/kg/injection, schedule: Q01DX009 (ip), vehicle: saline + Tween-80 + alcohol); 100 % of control (dose: 0.25 mg/kg/injection, schedule: Q01DX009 (ip), vehicle: saline + Tween-80 + alcohol); 103 % of control (dose: 0.5 mg/kg/injection, schedule: Q01DX009 (ip), vehicle: saline + Tween-80 + alcohol); 100 % of control and 120 % of control (dose: 1.0 mg/kg/injection, schedule: Q01DX009 (ip), vehicle: saline + Tween-80 + alcohol); 117 % of control (dose: 1.4 mg/kg/injection, schedule: Q01DX009 (ip), vehicle: saline + Tween-80 + alcohol).

Consider `Cc1[nH]c2c(ccc3ccccc32)c(=O)c1N=Nc1ccc(C(=N)N)cc1`, for which the T/C (dose: 50.0 mg/kg/injection, schedule: Q01DX005 (ip), vehicle: Klucel + Tween-80) was 124 % of control; the T/C (dose: 200.0 mg/kg/injection, schedule: Q01DX005 (ip), vehicle: Klucel + Tween-80) was 154 % of control; the T/C (dose: 400.0 mg/kg/injection, schedule: Q01DX005 (ip), vehicle: Klucel + Tween-80) was 168 % of control.

As to `c1ccc2c(c1)[nH]c1c(N3CCOCC3)nnc(N3CCOCC3)c12`, the T/C was 99 % of control under setting [1]; 103 % of control under setting [6]; 98 % of control under setting [2]; 96 % of control under setting [7]; 98 % of control under setting [3]; 90 % of control under setting [8].

On to `COc1cc2c(cc1OC)CN1CCc3cc(OC)c(OC)cc3C1C2` (stereo unspecified), for which the T/C is, setting by setting: under setting [9], 99 % of control; under setting [10], 94 % of control; under setting [11], 91 % of control.

Regarding `Cc1nn(C(=O)c2ccncc2)c(C)c1N=Nc1ccc(S(=O)(=O)N=C(N)N)cc1`, the T/C was 97 % of control (dose: 50.0 mg/kg/injection, schedule: Q01DX009 (ip), vehicle: Klucel (hydroxypropylcellulose) (HPC)); 95 % of control (dose: 100.0 mg/kg/injection, schedule: Q01DX009 (ip), vehicle: Klucel (hydroxypropylcellulose) (HPC)); 100 % of control (dose: 200.0 mg/kg/injection, schedule: Q01DX009 (ip), vehicle: Klucel (hydroxypropylcellulose) (HPC)).

Consider `O=c1[nH][nH]c(=O)n2c1cc1oc(-c3ccccc3)cc12`, for which the T/C runs as follows: under setting [6], 86 % of control; under setting [7], 90 % of control; under setting [8], 86 % of control.

On to `O=C1CN(C(=O)Nc2ccccc2)c2ccccc2N1`, for which the T/C is 92 % of control under setting [9], 93 % of control under setting [10] and 90 % of control under setting [11].

In the case of `OCC(CO)(CO)NCCCNC(CO)(CO)CO`, the T/C was 98 % of control (dose: 60.0 mg/kg/injection, schedule: Q01DX005 (ip), vehicle: saline); 101 % of control (dose: 120.0 mg/kg/injection, schedule: Q01DX005 (ip), vehicle: saline); 97 % of control (dose: 240.0 mg/kg/injection, schedule: Q01DX005 (ip), vehicle: saline).

Consider `C=CC(C)(C)C(O)C=C(C)C` (stereo unspecified), for which the T/C runs as follows: (dose: 100.0 mg/kg/injection, schedule: Q04DX002 (ip), vehicle: saline with Tween-80) 99 % of control; (dose: 200.0 mg/kg/injection, schedule: Q04DX002 (ip), vehicle: saline with Tween-80) 100 % of control; (dose: 400.0 mg/kg/injection, schedule: Q04DX002 (ip), vehicle: saline with Tween-80) 101 % of control.

In the case of `C[n+]1c(-c2ccccc2)c2cc(N)ccc2c2ccc(N)cc21`, the T/C (dose: 1.56 mg/kg/injection, schedule: Q04DX003 (ip), vehicle: saline with Tween-80) was 106 % of control; the T/C (dose: 3.13 mg/kg/injection, schedule: Q04DX003 (ip), vehicle: saline with Tween-80) was 107 % of control; the T/C (dose: 6.25 mg/kg/injection, schedule: Q04DX003 (ip), vehicle: saline with Tween-80) is 118 % of control; the T/C under setting [5] was 124 % of control.

Turning to `COc1cc(-c2nn(CN3CCOCC3)c(=S)n2C)cc(OC)c1OC`, the T/C by setting is: under setting [1], 103 % of control; under setting [2], 103 % of control; under setting [3], 100 % of control.
